Tests used:
[1] = Stability in mouse blood after intraperitoneal administration (HPLC); format: in vivo, ICR mice; conditions: for Residual drug within the abdominal cavity: after intraperitoneal administration to mice; for Stability in mouse blood: i.p., equimolar to 20 mg/kg BW TC11, HPLC peaks 0.5-1.5 hours after administration
Protocol: First, PEG11(E)-TC11(A) and PEG11(O)-TC11(B) were examined for stability in mouse blood. To 5-week-old male ICR mice (CLEA Japan, Tokyo, Japan), PEG11(E)-TC11 and PEG11(O)-TC11 were administered intraperitoneally at 59.1 mg/kg BW and 54.6 mg/kg BW, respectively, in such a manner that each molar concentration was equivalent to that of 20 mg/kg BW of TC11. At 0, 0.5, 1, 1.5, 4, 8, 12, and 24 hours later, a tail vein was punctured with a 26G needle for bleeding, and then about 100 μL of blood was collected using a heparinized hematocrit capillary tube (Terumo, Tokyo, Japan). After blood collection, blood was transferred into a 0.5-mL tube, and then subjected to centrifugation at 4° C. and 3,400 G for 15 minutes. Subsequently, the supernatant was collected, and then cryopreserved at −80° C. A quality control serum, Consera (registered trademark) (Nissui pharmaceutical, Tokyo, Japan) was dissolved in 3 mL of distilled water (dH2O) per bottle. After left to stand for 30 minutes, bottles were turned upside-down (mixing by inversion) and then used. Consera (190 μL) was mixed with the collected blood plasma and 10 μL of urine, thereby preparing samples. Moreover, PEG11(E)-TC11 and HOEtO-TC11 were each diluted with dH2O in such a manner that the concentrations were 0, 2, 4, 6, 8, and 10 μM, and then 10 μL of the solution at each concentration and 190 μL of Consera were mixed, thereby preparing a calibration curve sample. Sep-Pak (registered trademark) C18 solid phase extraction cartridge (Waters Associates, Massachusetts, USA) was washed with 2 mL of 100% CH3CN, and then equilibrated with 4 mL of dH2O. Each sample and a sample for preparing a calibration curve were added to the cartridge, and then rinsed with 200 μL of dH2O. Subsequently, the resultant was washed with 2 mL of dH2O, 2 mL of 40% CH3CN, and 250 μL of 100% CH3CN, and then eluted with 1 mL of 100% CH3CN. The eluate was evaporated under vacuum using a centrifugal evaporator CVE-2000 (TOKYO […] CO, LTD, Tokyo, Japan), re-dissolution was performed with 100 μL of 100% EtOH, and then filtration was performed using a chromatodisc having a pore size of 0.45 μm (GL sciences, Tokyo, Japan). The high performance liquid chromatography (High Performance Liquid Chromatography; HPLC) apparatuses used herein are the following apparatuses manufactured by JASCO (Tokyo, Japan).
HPLC analysis was conducted using Inertsil (registered trademark) ODS-3 […]×Φ4.6 mm as a stationary phase, CH3CN:dH2O=50:50 as a mobile phase, a flow rate of 0.70 mL/min, a UV detection wavelength of 267 nm, and an excitation wavelength of 380 nm, a fluorescence wavelength of 530 nm, and an injection amount of 10 μL at a column temperature of 25° C.

KMS11 xenograft = test: Antitumor effect on KMS11-bearing mice (Example 16); format: in vivo, ICR/SCID mice; conditions: for Body weight compared to the control group: at the doses suppressing tumor growth; for Tumor volume compared to the control: i.p., equimolar to TC11 60 mg/kgBW
Protocol: TC11 and its derivatives were examined for in vivo antitumor effects using 6 KMS11 xenograft model mice. KMS11 was administered to 6-week-old ICR/SCID mice at 3×10^7 cells/mouse via hypodermic injection. Tumor volume was measured over time. The day on which each tumor volume exceeded 50 mm^3 was designated as Day 1 and observation was performed for 14 days. The single dosage of TC11 was 60 mg/kgBW, the intraperitoneal dosages of PEG11(E)-TC11 and PEG11(O)-TC11 were 177.3 mg/kgBW and 163.8 mg/kgBW, respectively, which were equimolar amounts of that of TC11. […] The final composition of the solvent was 10% DMSO+1% Tween 80/physiological saline. […] Drug administration was performed for two out of every 3 days (Day 1, 2, 4, 5, 7, 8, 10, 11, […], 13). Mice were sacrificed on Day 14, and then tumor weights were measured and in vivo findings were confirmed.

[2] = tested on: PANC-1 (human pancreatic cancer cells); test: WST-1 proliferation assay (Example 10), PANC-1; format: cell-based; conditions: WST-1, 48 hours
Protocol: (§1) Cancer cells used herein were KMS34 (human myeloma cells), HeLa (human cervical cancer cells), HCT116 (human colon cancer cells; p53+/+), KATOIII (human stomach cancer cells), MDA-MB-231 (human breast cancer cells), HT-29 (human colon adenocarcinoma cells), PANC-1 (human pancreatic cancer cells), and Li-7 (human liver cancer cells). Proliferation assay of various cancer cells was performed by the WST-1 method (Cook, J A. & Mitchell, J B., Anal. Biochem., 179, 1-7, 1984) as follows. One μ1 each of PEG11(E)-TC11 and PEG11(O)-TC11 prepared in advance at target concentrations was added into each well of a 96-well microplate. Medium was added to the wells at 50 μl per well, and then mixed by tapping lightly the plate. Subsequently, KMS34 was prepared at a concentration of 5×10^5 cells/ml, and cells other than KMS34 were prepared at a concentration of 2×10^5 cells/ml. Cells were seeded at 50 μl per well (2.5×10^4 cells, 1×10^4 cells), and then incubated in a CO2 incubator (37° C., 5% CO2) for 48 hours. […] Subsequently, the plate was shaken with a plate reader for 1 minute, and then absorbance was measured at 450 nm. At this time, absorbance was also measured at 595 nm as a reference wavelength. The net absorbance was obtained by subtracting the absorbance at the reference wavelength from the absorbance at 450 nm.

[3] = tested on: HT-29 (human colon adenocarcinoma cells); test: WST-1 proliferation assay (Example 10), HT-29; format: cell-based; conditions: WST-1, 48 hours
Protocol: as §1

[4] = 6 KMS11 xenograft model mice, i.p. 177.3 mg/kgBW

SMILES	Residual drug within the abdominal cavity [1]	Stability in mouse blood [1]	Mice from which the primary lesion had completely disappeared (KMS11 xenograft; [4]) [mouse]	Mice having tumor sizes almost the same as at initiation of administration (KMS11 xenograft; [4]) [mice]	Body weight compared to the control group (KMS11 xenograft; KMS11 xenograft mice)	Tumor volume compared to TC11 (KMS11 xenograft; KMS11 xenograft mice, i.p. 177.3 mg/kgBW, 14 days)	Tumor volume compared to the control (KMS11 xenograft; KMS11 xenograft mice, 14 days)	IC50 [2] [µM]	IC50 [3] [µM]
COCCOCCOCCOCCOCCOCCOCCOCCOCCOCCOCCOCCC(=O)OCCOc1cc2c(cc1N)C(=O)N(c1c(C(C)C)cccc1C(C)C)C2=O [PEG11(E)-TC11]	no residual drug was observed	quickly hydrolyzed with esterase in blood, and converted to HOEtO-TC11	1	3	no decrease in body weight	significant decrease in tumor volume compared to TC11	significant decreases in tumor volume	14	20.5
CC(C)c1cccc(C(C)C)c1N1C(=O)c2ccc(N)cc2C1=O [TC11, 2-(2,6-di-isopropylphenyl)-5-amino-1H-isoindole-1,3-dione, reference compound]	–	–	–	–	no decrease in body weight	–	significant decreases in tumor volume	–	–
COCCOCCOCCOCCOCCOCCOCCOCCOCCOCCOCCOCCOc1cc2c(cc1N)C(=O)N(c1c(C(C)C)cccc1C(C)C)C2=O [PEG11(O)-TC11]	no residual drug was observed	not degraded with esterase in blood	–	–	no decrease in body weight	–	significant decreases in tumor volume	75	11.4

Source: patent publication US20190315775A1, “MODIFIED […] AND PHARMACEUTICAL COMPOSITION HAVING SAME AS ACTIVE INGREDIENT” (KEIO UNIVERSITY, priority 2016, published 2019)
